Assay results reported in the supplement of paper PMC11061612.

What was measured:
AZD5991 = compound: Cc1c2c(nn1C)CSCc1cc(n(C)n1)CSc1cc(c3ccccc3c1)OCCCc1c(C(=O)O)n(C)c3c-2c(Cl)ccc13 [AZD5991]; conditions: max 1 µM
Procedure, shortened: (§1)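 Cancer cell lines were plated in 1536-well plates in 7.5 μl of DMEM/F12 or RPMI with 10% FBS and kept 24 hours at 37°C and 5% CO2 before 72 hours of dosing, with final DMSO typically 0.2%. CellTiter-Glo 2.0 luminescence measured viability, scaled between blank-well and DMSO-well means. Dose responses were fitted to a two-parameter logistic curve with a non-linear mixed effects model. This fit gives the single-agent IC50.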

Alisertib = compound: COc1cc(Nc2ncc3c(n2)-c2ccc(Cl)cc2C(c2c(F)cccc2OC)=NC3)ccc1C(=O)O [Alisertib]; conditions: max 10 µM
Procedure, shortened: as §1

Taselisib = compound: Cc1nc(-c2cn3c(n2)-c2ccc(-c4cnn(C(C)(C)C(N)=O)c4)cc2OCC3)n(C(C)C)n1 [Taselisib]; conditions: max 10 µM
Procedure, shortened: as §1

AZD1390 = compound: CC(C)n1c(=O)n(C)c2cnc3cc(F)c(-c4ccc(OCCCN5CCCCC5)nc4)cc3c21 [AZD1390]; conditions: max 0.3 µM
Procedure, shortened: as §1

Prexasertib = compound: COc1cccc(OCCCN)c1-c1cc(Nc2cnc(C#N)cn2)n[nH]1 [Prexasertib]; conditions: max 1 µM
Procedure, shortened: as §1

AZD8186 = compound: C[C@@H](Nc1cc(F)cc(F)c1)c1cc(C(=O)N(C)C)cc2c(=O)cc(N3CCOCC3)oc12 [AZD8186]; conditions: max 10 µM
Procedure, shortened: as §1

Carboplatin = compound: C1CC(C1)(C(=O)[O-])C(=O)[O-].N.N.[Pt+2] [Carboplatin]; conditions: max 10 µM
Procedure, shortened: as §1

Venetoclax = compound: CC1(C)CCC(CN2CCN(c3ccc(C(=O)NS(=O)(=O)c4ccc(NCC5CCOCC5)c([N+](=O)[O-])c4)c(Oc4cnc5[nH]ccc5c4)c3)CC2)=C(c2ccc(Cl)cc2)C1 [Venetoclax]; conditions: max 1 µM
Procedure, shortened: as §1

Trametinib = compound: CC(=O)Nc1cccc(-n2c(=O)n(C3CC3)c(=O)c3c(Nc4ccc(I)cc4F)n(C)c(=O)c(C)c32)c1 [Trametinib]; conditions: max 1 µM
Procedure, shortened: as §1

AZD7648 = compound: Cc1cc2ncnn2cc1Nc1ncc2c(n1)n(C1CCOCC1)c(=O)n2C [AZD7648]; conditions: max 10 µM
Procedure, shortened: as §1

5-Fluorouracil = compound: O=c1[nH]cc(F)c(=O)[nH]1 [5-Fluorouracil]; conditions: max 20 µM
Procedure, shortened: as §1

[1] = compound: O=C(Nc1ccc2[nH]nc(-c3ccncc3)c2c1)[C@@H]1CCN(CC(=O)N2CCN(c3ccc(-c4ncccn4)cc3)CC2)C1; conditions: max 5 µM
Procedure, shortened: as §1

Gefitinib = compound: COc1cc2ncnc(Nc3ccc(F)c(Cl)c3)c2cc1OCCCN1CCOCC1 [Gefitinib]; conditions: max 10 µM
Procedure, shortened: as §1

Etoposide = compound: COc1cc([C@@H]2c3cc4c(cc3[C@@H](O[C@@H]3O[C@@H]5CO[C@@H](C)O[C@H]5[C@H](O)[C@H]3O)[C@H]3COC(=O)[C@H]23)OCO4)cc(OC)c1O [Etoposide]; conditions: max 10 µM
Procedure, shortened: as §1

MK-2206 = compound: NC1(c2ccc(-c3nc4ccn5c(=O)[nH]nc5c4cc3-c3ccccc3)cc2)CCC1 [MK-2206]; conditions: max 10 µM
Procedure, shortened: as §1

Crizotinib = compound: C[C@@H](Oc1cc(-c2cnn(C3CCNCC3)c2)cnc1N)c1c(Cl)ccc(F)c1Cl [Crizotinib]; conditions: max 10 µM
Procedure, shortened: as §1

AZD1775 = compound: C=CCn1c(=O)c2cnc(Nc3ccc(N4CCN(C)CC4)cc3)nc2n1-c1cccc(C(C)(C)O)n1 [AZD1775]; conditions: max 3 µM
Procedure, shortened: as §1

Savolitinib = compound: C[C@@H](c1ccc2nccn2c1)n1nnc2ncc(-c3cnn(C)c3)nc21 [Savolitinib]; conditions: max 1 µM
Procedure, shortened: as §1

AZD5153 = compound: COc1nnc2ccc(N3CCC(c4ccc(OCCN5CCN(C)C(=O)[C@H]5C)cc4)CC3)nn12 [AZD5153]; conditions: max 1 µM
Procedure, shortened: as §1

Selumetinib = compound: Cn1cnc2c(F)c(Nc3ccc(Br)cc3Cl)c(C(=O)NOCCO)cc21 [Selumetinib]; conditions: max 10 µM
Procedure, shortened: as §1

Olaparib = compound: O=C(c1cc(Cc2n[nH]c(=O)c3ccccc23)ccc1F)N1CCN(C(=O)C2CC2)CC1 [Olaparib]; conditions: max 10 µM
Procedure, shortened: as §1

AZD4320 = compound: CN(CC[C@H](CSC1=CC=CC=C1)NC2=C(C=C(C=C2)S(=O)(=O)NC(=O)C3=CC=C(C=C3)N4CCC(CC4)[C@H](C5=CC=CC=C5C6=CC=C(C=C6)Cl)O)S(=O)(=O)C(F)(F)F)CCO [AZD4320]; conditions: max 1 µM
Procedure, shortened: as §1

Gemcitabine = compound: Nc1ccn([C@@H]2O[C@H](CO)[C@@H](O)C2(F)F)c(=O)n1 [Gemcitabine]; conditions: max 0.3 µM
Procedure, shortened: as §1

AZD6738 = compound: C[C@@H]1COCCN1C2=NC(=NC(=C2)C3(CC3)[S@](=N)(=O)C)C4=C5C=CNC5=NC=C4 [AZD6738]; conditions: max 10 µM
Procedure, shortened: as §1

AZD5363 = compound: C1CN(CCC1(C(=O)N[C@@H](CCO)C2=CC=C(C=C2)Cl)N)C3=NC=NC4=C3C=CN4 [AZD5363]; conditions: max 10 µM
Procedure, shortened: as §1

Doxorubicin = compound: COc1cccc2c1C(=O)c1c(O)c3c(c(O)c1C2=O)C[C@@](O)(C(=O)CO)C[C@@H]3O[C@H]1C[C@H](N)[C@H](O)[C@H](C)O1 [Doxorubicin]; conditions: max 1 µM
Procedure, shortened: as §1

SRA737 = compound: N#Cc1cnc(Nc2cc(NC[C@H]3CNCCO3)c(C(F)(F)F)cn2)cn1 [SRA737]; conditions: max 10 µM
Procedure, shortened: as §1

Paclitaxel = compound: CC(=O)O[C@H]1C(=O)[C@@]2(C)[C@H]([C@H](OC(=O)c3ccccc3)[C@]3(O)C[C@H](OC(=O)[C@H](O)[C@@H](NC(=O)c4ccccc4)c4ccccc4)C(C)=C1C3(C)C)[C@]1(OC(C)=O)CO[C@@H]1C[C@@H]2O [Paclitaxel]; conditions: max 3 µM
Procedure, shortened: as §1

Lapatinib = compound: CS(=O)(=O)CCNCc1ccc(-c2ccc3ncnc(Nc4ccc(OCc5cccc(F)c5)c(Cl)c4)c3c2)o1 [Lapatinib]; conditions: max 10 µM
Procedure, shortened: as §1

AZD2811 = compound: CCN(CCO)CCCOc1ccc2c(Nc3cc(CC(=O)Nc4cccc(F)c4)[nH]n3)ncnc2c1 [AZD2811]; conditions: max 1 µM
Procedure, shortened: as §1

SN-38 = compound: CCc1c2c(nc3ccc(O)cc13)-c1cc3c(c(=O)n1C2)COC(=O)[C@]3(O)CC [SN-38]; conditions: max 0.3 µM
Procedure, shortened: as §1

AZD0156 = compound: CN(C)CCCOc1ccc(-c2ccc3ncc4c(c3c2)n(C2CCOCC2)c(=O)n4C)cn1 [AZD0156]; conditions: max 3 µM
Procedure, shortened: as §1

SG3199 = compound: CC1=CN2[C@@H](C1)C=NC3=CC(=C(C=C3C2=O)OC)OCCCCCOC4=C(C=C5C(=C4)N=C[C@@H]6CC(=CN6C5=O)C)OC [SG3199]; conditions: max 0.001 µM
Procedure, shortened: as §1

Dasatinib = compound: CC1=C(C(=CC=C1)Cl)NC(=O)C2=CN=C(S2)NC3=CC(=NC(=N3)C)N4CCN(CC4)CCO [Dasatinib]; conditions: max 2 µM
Procedure, shortened: as §1

Palbociclib = compound: CC(=O)c1c(C)c2cnc(Nc3ccc(N4CCNCC4)cn3)nc2n(C2CCCC2)c1=O [Palbociclib]; conditions: max 10 µM
Procedure, shortened: as §1

Cell Line	IC50, cell viability 72 h (AZD5991) [nM]	IC50, cell viability 72 h (Alisertib) [nM]	IC50, cell viability 72 h (Taselisib) [nM]	IC50, cell viability 72 h (AZD1390) [nM]	IC50, cell viability 72 h (Prexasertib) [nM]	IC50, cell viability 72 h (AZD8186) [nM]	IC50, cell viability 72 h (Carboplatin) [nM]	IC50, cell viability 72 h (Venetoclax) [nM]	IC50, cell viability 72 h (Trametinib) [nM]	IC50, cell viability 72 h (AZD7648) [nM]	IC50, cell viability 72 h (5-Fluorouracil) [nM]	IC50, cell viability 72 h [1] [nM]	IC50, cell viability 72 h (Gefitinib) [nM]	IC50, cell viability 72 h (Etoposide) [nM]	IC50, cell viability 72 h (MK-2206) [nM]	IC50, cell viability 72 h (Crizotinib) [nM]	IC50, cell viability 72 h (AZD1775) [nM]	IC50, cell viability 72 h (Savolitinib) [nM]	IC50, cell viability 72 h (AZD5153) [nM]	IC50, cell viability 72 h (Selumetinib) [nM]	IC50, cell viability 72 h (Olaparib) [nM]	IC50, cell viability 72 h (AZD4320) [nM]	IC50, cell viability 72 h (Gemcitabine) [nM]	IC50, cell viability 72 h (AZD6738) [nM]	IC50, cell viability 72 h (AZD5363) [nM]	IC50, cell viability 72 h (Doxorubicin) [nM]	IC50, cell viability 72 h (SRA737) [nM]	IC50, cell viability 72 h (Paclitaxel) [nM]	IC50, cell viability 72 h (Lapatinib) [nM]	IC50, cell viability 72 h (AZD2811) [nM]	IC50, cell viability 72 h (SN-38) [nM]	IC50, cell viability 72 h (AZD0156) [nM]	IC50, cell viability 72 h (SG3199) [nM]	IC50, cell viability 72 h (Dasatinib) [nM]	IC50, cell viability 72 h (Palbociclib) [nM]
OVMIU (Ovarian Carcinoma)	> 1000	7010	148	> 300	267	> 10000	> 10000	> 1000	70	> 10000	> 20000	3190	3200	> 10000	> 10000	> 10000	1720	> 1000	302	> 10000	> 10000	> 1000	> 300	> 10000	> 10000	801	> 10000	77.7	3240	> 1000	> 300	> 3000	> 1	209	> 10000
PANC-03-27 (Pancreatic Carcinoma)	> 1000	> 10000	4600	> 300	7.87	> 10000	> 10000	> 1000	271	> 10000	> 20000	3080	> 10000	> 10000	> 10000	> 10000	184	> 1000	> 1000	> 10000	> 10000	> 1000	183	2570	> 10000	> 1000	3400	214	> 10000	> 1000	49.8	> 3000	> 1	1760	> 10000
PSN1 (Pancreatic Carcinoma)	> 1000	> 10000	5380	> 300	> 1000	> 10000	> 10000	> 1000	18.6	> 10000	7840	193	> 10000	8600	> 10000	7760	1630	> 1000	> 1000	952	> 10000	> 1000	33.6	> 10000	> 10000	> 1000	> 10000	61.9	> 10000	> 1000	110	> 3000	> 1	244	> 10000
